Laboratory results reported in patent US20210353633A1, “CYCLODEXTRIN-BASED FORMULATION OF A BCL-2 INHIBITOR” (LES LABORATOIRES SERVIER, priority 2018, published 2021).
Values after ≈ are worked out from the molar mass of the structure shown.

Tests used:
[1] = Solubility test in various carriers (Example 1); assay type: physicochemical; details: aqueous with cosolvent or surfactant or cyclodextrin, thermodynamic from solid; in the carriers permitting substantial solubilisation (cyclodextrins, PEG400, PEG400/EtOH/0.9% NaCl); read-out: solubilities after 24 hours' stirring
Procedure: The solubility of ‘Compound A, H2SO4’ was studied in various media, including: • citrate buffer (pH=2; 50 mM), acetate buffer (pH=4; 50 mM) and phosphate buffer (pH=6-7.4; 67.7 mM); • cyclodextrins of the type sulfobutyl ether β-cyclodextrin (SBE-β-cyclodextrin) or hydroxypropyl β-cyclodextrin (HP-β-cyclodextrin); more precisely, the SBE-β-cyclodextrin tested is Dexsolve™ marketed by Cyclolab, while the HP-β-cyclodextrins tested are Cavitron™ W7HP7 and Cavitron™ W7HP5 marketed by Wacker; Kleptose™ HP and Kleptose™ HPB marketed by Roquette; • surfactants such as polysorbate 80 and Kolliphor™ ELP; • the mixture PEG400/ethanol/0.9% NaCl (40/10/50).
5 g of the cyclodextrin studied (Dexsolve™, Cavitron™ W7HP7, Cavitron™ W7HP5, Kleptose™ HP or Kleptose™ HPB) are weighed into a […] graduated flask. Approximately 15 mL of water are added and the whole obtained is subjected to magnetic stirring. The volume is then made up to 25 mL by the addition of water. The whole is placed under magnetic stirring for 10 minutes.
1 g of the surfactant studied is weighed into a 50 mL graduated flask. The volume is then made up to 50 mL by means of 0.9% NaCl solution. The whole is placed under magnetic stirring for 1 hour.
20 mL of PEG 400, 5 mL of ethanol and 25 mL of NaCl are taken. The whole is placed in a 100 mL Erlenmeyer flask and stirred magnetically for 30 minutes.
Approximately 340 mg of ‘Compound A, H2SO4’ are weighed into a 5 mL tube. 3 mL of the medium containing the carrier to be tested are then added. The whole is then placed under magnetic stirring for 2 hours or 24 hours. The suspension or solution so obtained is passed through a 0.2 μm filter (PVDF membrane—Millipore) before being analysed by HPLC. In addition, the presence of degradation products of Compound A was investigated in the samples stored for 72 hours at ambient temperature.

[2] = pH, appearance and precipitation pH of solutions diluted in 250 mL of glucose 5% solution (G5); assay type: physicochemical; details: for pH: hydrogen sulfate salt in Cavitron W7H5; for Precipitation pH (by light obscuration technique) / Precipitation pH (by visual observation): pH increased with NaOH 0.01N
Procedure: The Compound A used is in the form of a hydrogen sulfate salt. Invisible particulate contamination of the solutions was also controlled by light obscuration technique.
A mother solution containing a dose of 200 mg/mL of Cavitron™ W7H5 and 20 mg/mL of Compound A (expressed for the free base) is prepared by dissolving a lyophilisate as described in Example 5 in the necessary amount of water. The solution so obtained is then diluted by means of glucose 5% solution (G5).
The pH of the solutions obtained is measured and the appearance of the solutions is observed. The pH is increased using NaOH 0.01N solution until a precipitation is observed.

[3] = Aqueous solubility of Compound A; assay type: physicochemical; details: aqueous media, aqueous buffer; free base; across all pHs
Excerpt: In order to enable safe and effective administration of Compound A, and to elicit the required therapeutic effects, Compound A needs to be solubilized at higher concentration than its aqueous solubility.

[4] = PK parameters in RS4;11 grafted female SCID mice; assay type: in vivo; details: for Cmax: female, SCID, mouse, blood, iv
Procedure: RS4;11 cell line, obtained from ATCC, were subcutaneously injected into female SCID mice, provided by Charles River. When tumors reached the appropriate tumor volume, mice were randomized using Easy stat software. […]
In a 100 mL flask, introduce 20 g of Cavitron™ W7HP5 and add around 75 mL of a solution water/0.9% NaCl (70/30, v/v). Stir for 15 minutes at room temperature. Then, make up the solution to a volume of 100 mL by adding the previous solution water/0.9% NaCl, while maintaining magnetic stirring. Weigh the necessary amount of ‘Compound A, H2SO4’ and dissolve it with the previous 20% w/v Cavitron™ W7H5 solution. Heat the whole at 60° C. under vigorous magnetic stirring until solubilisation of the components of the mixture is complete. Measure the pH of the solution obtained. Adjust the pH to 3 by adding drop by drop, either HCl 0.1N or NaOH 0.1N, depending on the concentration of Compound A. Stir the mixture at least for 1 hour. Filtrate the obtained solution with a 0.2 μm-filter.
A 20% w/v Cavitron™ W7H5 solution containing a dose of 4 mg/mL of Compound A was prepared following this procedure. A second solution containing a dose of 1.5 mg/mL of Compound A was also prepared by diluting further the previous solution with the 20% w/v Cavitron™ W7H5 solution.

[5] = 12 mg of Compound A in 250 mL of G5
[6] = 25 mg of Compound A in 250 mL of G5
[7] = 50 mg of Compound A in 250 mL of G5
[8] = 100 mg of Compound A in 250 mL of G5
[9] = 250 mg of Compound A in 250 mL of G5
[10] = 500 mg of Compound A in 250 mL of G5
[11] = 1000 mg of Compound A in 250 mL of G5

solubility at 24 h [1]: 10000 to 30000 µg/mL (≈ 13.9 to 41.8 mM) | Appearance of the solution after 15 min [2, 5]: clear | pH [2, 5]: 3.7-4.310 | Precipitation pH (by light obscuration technique) [2, 5]: 5.4 | Precipitation pH (by visual observation) [2, 5]: 8.609 | Appearance of the solution after 15 min [2, 6]: clear | pH [2, 6]: 3.9-4.240 | Precipitation pH (by light obscuration technique) [2, 6]: 4.8 | Precipitation pH (by visual observation) [2, 6]: 5.220 | Appearance of the solution after 15 min [2, 7]: clear | pH [2, 7]: 3.8-4.158 | Precipitation pH (by light obscuration technique) [2, 7]: 4.5 | Precipitation pH (by visual observation) [2, 7]: 5.143 | Appearance of the solution after 15 min [2, 8]: clear | pH [2, 8]: 3.8-4.033 | Precipitation pH (by light obscuration technique) [2, 8]: 4.3 | Precipitation pH (by visual observation) [2, 8]: 4.872 | Appearance of the solution after 15 min [2, 9]: clear | pH [2, 9]: 3.7-3.809 | Precipitation pH (by light obscuration technique) [2, 9]: 4.1 | Precipitation pH (by visual observation) [2, 9]: 4.388 | Appearance of the solution after 15 min [2, 10]: clear | pH [2, 10]: 3.5-3.613 | Precipitation pH (by light obscuration technique) [2, 10]: 4.0 | Precipitation pH (by visual observation) [2, 10]: 4.378 | Appearance of the solution after 15 min [2, 11]: clear | pH [2, 11]: 3.3-3.401 | Precipitation pH (by light obscuration technique) [2, 11]: 4.0 | Precipitation pH (by visual observation) [2, 11]: 4.254 | precipitation when diluted in G5 solution ([2]; concentrations between 12 and 1000 mg/250 mL of G5 solution, solubilised by Cavitron W7H5 solution): do not precipitate | solubility [3]: < 10 µg/mL | exposure ([4]; 15 mg/kg i.v.): 20463 ng·h/mL | exposure ([4]; 40 mg/kg i.v.): 46509 ng·h/mL | Cmax ([4]; 15 mg/kg i.v.): 14700 ng/mL | Cmax ([4]; 40 mg/kg i.v.): 23300 ng/mL
Structure (SMILES): Cc1c(N(C(=O)c2cc(-c3cc(Cl)ccc3C(=O)N3Cc4ccccc4C[C@H]3CN3CCOCC3)n(C)c2C)c2ccc(O)cc2)cc(C#N)n1C [Compound A, 5-(5-chloro-2-{[(3S)-3-(morpholin-4-ylmethyl)-3,4-dihydroisoquinolin-2(1H)-yl]carbonyl}phenyl)-N-(5-cyano-1,2-dimethyl-1H-pyrrol-3-yl)-N-(4-hydroxyphenyl)-1,2-dimethyl-1H-pyrrole-3-carboxamide]
